In PubChem BioAssay (NCI):
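Compound exposure: 48 hours, 5 concentrations, 96-well plates. At the GI50, growth is halved. TGI is the concentration that stops growth completely.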

How the values were obtained:
Test in all cases: NCI-60 cell line screen, 48 h
SNB-19 CNS = tested on: SNB-19 CNS
COLO 205 colon = tested on: COLO 205 colon
SN12C renal = tested on: SN12C renal
M14 melanoma = tested on: M14 melanoma
HOP-62 NSCLC = tested on: HOP-62 NSCLC
A498 renal = tested on: A498 renal
LOX IMVI melanoma = tested on: LOX IMVI melanoma
PC-3 prostate = tested on: PC-3 prostate
HCT-15 colon = tested on: HCT-15 colon
EKVX NSCLC = tested on: EKVX NSCLC

SMILES	GI50 (SNB-19 CNS)	TGI (SNB-19 CNS)	GI50 (COLO 205 colon)	TGI (COLO 205 colon)	GI50 (SN12C renal)	TGI (SN12C renal)	GI50 (M14 melanoma)	TGI (M14 melanoma)	GI50 (HOP-62 NSCLC)	TGI (HOP-62 NSCLC)	GI50 (A498 renal)	TGI (A498 renal)	GI50 (LOX IMVI melanoma)	TGI (LOX IMVI melanoma)	GI50 (PC-3 prostate)	TGI (PC-3 prostate)	GI50 (HCT-15 colon)	TGI (HCT-15 colon)	GI50 (EKVX NSCLC)	TGI (EKVX NSCLC)
O=c1[nH]c2ccccc2n1-c1n[nH]c2ccccc12	56600 nM	> 100 µM	28.7 µM	> 100 µM	37200 nM	> 100 µM	29200 nM	88.2 µM	33200 nM	> 100 µM	51300 nM	> 100 µM	17400 nM	52.5 µM	18100 nM	> 100 µM	31000 nM	> 100 µM	29700 nM	> 100 µM
CC(C)C(=O)Oc1cc2c(=O)oc3c(OC(=O)C(C)C)c(OC(=O)C(C)C)cc4c(=O)oc(c1OC(=O)C(C)C)c2c34		> 100 µM		> 100 µM		> 100 µM		> 100 µM		> 100 µM		> 100 µM		> 100 µM		> 100 µM		> 100 µM		> 100 µM
O=C(Nc1ccccc1C(=O)N/N=C(\c1ccccc1)c1ccccn1)c1ccc(F)cc1	502 nM	> 100 µM	0.215 µM	> 100 µM	584 nM	> 100 µM	276 nM	3.89 µM	214 nM	> 38.5 µM	1370 nM	9.43 µM	247 nM	> 100 µM	792 nM	> 100 µM	42.6 nM	> 100 µM	169 nM	> 100 µM
CC(=O)Oc1ccc(/C=N/NC(N)=S)nc1	8770 nM	> 100 µM	31 µM	> 100 µM	4060 nM	> 100 µM	2720 nM	8.72 µM	6150 nM	77.6 µM	4880 nM	58.9 µM	3540 nM	> 100 µM	5280 nM	> 100 µM	22500 nM	> 100 µM	10800 nM	> 100 µM
Oc1ccc(Cl)cc1Cc1cc(Cl)ccc1O	3520 nM	15 µM	13.7 µM	26.8 µM	2800 nM	10.7 µM	3310 nM	10.5 µM	2390 nM	7.56 µM	1980 nM	9.84 µM	2820 nM	8.51 µM	3170 nM	11.6 µM	3260 nM	12.3 µM	2650 nM	8.84 µM
Cc1cc(Cl)ccc1NS(=O)(=O)c1ccc(-c2cnc(C3CC3)o2)cc1	395 nM	18.7 µM	0.36 µM	4.44 µM	578 nM	16.5 µM	254 nM	15.3 µM	556 nM	21.5 µM	91.5 nM	0.841 µM	622 nM	14.2 µM	254 nM	13.8 µM	90.8 nM	12.2 µM	411 nM	28.5 µM
N#CC1C=Cc2ccccc2N1C(=O)Oc1ccccc1 (stereo not drawn)		> 100 µM		> 100 µM		> 100 µM		> 100 µM				96.5 µM		> 100 µM		> 100 µM		> 100 µM		> 100 µM
COc1cc(/C=C(\C#N)C(N)=C(C#N)C#N)cc(O)c1O		> 100 µM		> 100 µM		> 100 µM		> 100 µM		> 100 µM		> 100 µM		> 100 µM		> 100 µM		> 100 µM		> 100 µM
COc1cnc2cc(C(=O)O)c3ccccc3c2c1		> 100 µM		> 100 µM		> 100 µM		> 100 µM		> 100 µM		> 100 µM		> 100 µM		> 100 µM		> 100 µM		> 100 µM
COc1cccc(/C=C/C(=O)c2cc3c(N)c(C(=O)Nc4cccc5ccccc45)sc3nc2C)c1	1690 nM	> 50 µM	1.71 µM	34.2 µM	1140 nM	2.98 µM	1310 nM	4.69 µM	1140 nM	3.21 µM	885 nM	2.74 µM	826 nM	1.69 µM	1480 nM	6.22 µM	624 nM	1.86 µM	1870 nM	> 50 µM
COc1ccc(CCN2CCc3c(C)c(C#N)c4nc5ccccc5n4c32)cc1OC		> 100 µM		89.8 µM		> 100 µM		> 100 µM		> 100 µM		> 100 µM		> 100 µM		> 100 µM		> 100 µM		
